Reference: patent EP2045266A1, “Methods for treating and diagnosing a cancer secreting cath-D or Alzheimer's disease” (INSERM (Institut National de la Santé et de la Recherche …, priority 2007, dated 2009)
One block for each compound: values may come before it. Non-standard residues stand in square brackets, D forms with d. Residues, ends and D or L forms follow the SMILES beside them. *: point of attachment. Sta = CC(C)C[C@H](N)[C@@H](O)CC(=O)O; Isovaleryl = CC(C)CC(=O)*

Assays:
[1] = target: auto-activated pro-cath-D (Homo sapiens, UniProt P07339); assay: Cleavage of the LRP1 [349-397] peptide by auto-activated pro-cath-D (HPLC, NH2-terminal sequencing); type: biochemical; details: pro-cath-D 500 ng auto-activated at pH 3.5 for 30 min, 2 h with 50 µM peptide at pH 3.5
auto-activated pro-cath-D, sequence (P07339 65-412): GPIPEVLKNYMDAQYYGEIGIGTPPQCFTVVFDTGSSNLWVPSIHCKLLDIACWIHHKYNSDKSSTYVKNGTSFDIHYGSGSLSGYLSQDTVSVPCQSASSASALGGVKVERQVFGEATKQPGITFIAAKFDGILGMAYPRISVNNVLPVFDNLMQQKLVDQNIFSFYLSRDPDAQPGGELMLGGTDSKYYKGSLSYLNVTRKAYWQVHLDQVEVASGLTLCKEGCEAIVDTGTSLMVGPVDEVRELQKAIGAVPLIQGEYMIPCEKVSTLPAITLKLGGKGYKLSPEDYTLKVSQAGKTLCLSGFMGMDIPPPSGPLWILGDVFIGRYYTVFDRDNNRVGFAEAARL
Description: (§1) • (A) Shedding of LRP1 β chain ectodomain. SEAP activity was quantified in the medium of COS cells transiently transfected with SEAP-LRP1β and β-galactosidase vectors in the absence or presence of cath-D vector (panel a). The mean ± SD of 4 independent determinations with both transfections and measurements carried in duplicate is shown *, p<0.0025 versus control (Student's t-test). […] A representative experiment from a transfection performed in duplicate is shown. Similar results were obtained in another independent experiment. • (B) Cleavage of the LRP1 [349-397] peptide by auto-activated pro-cath-D. Pro-cath-D (500 ng), auto-activated at pH 3.5 for 30 min, was incubated for 2 h with 50 µM of LRP1 [349-397] peptide at pH 3.5. Cleaved peptides were resolved by reverse-phase HPLC and subjected to NH2-terminal sequence analysis. Arrows indicate the 3 cleavage sites. • (C) Production of LRP1 β carboxyl-terminal fragment. COS cells, transfected with Myc-LRP1β in the absence or presence of wild-type or D231 N cath-D, were treated with DAPT (1 µM) or DMSO for 24 h. Cells were lysed and the full-length Myc-LRP1β and its carboxy-terminal fragment (LRP1β-CTF) were isolated by immunoprecipitation and visualized by immunoblotting with the monoclonal antibody 11H4. *, p<0.025 versus Luc siRNA HMF cells; **, p<0.0025 versus Luc siRNA HMF cells (Student's t-test).

pro-cath-D = target: T1, pro-cath-D (Homo sapiens, UniProt P07339); assay: GST pull-down: competition for binding of LRP1β (1-476) to GST-pro-cath-D; details: radio-labelled LRP1β (1-476), beads with GST-cath-D/52K, increasing concentration of the peptide; Fig. 2C
T1 construct: the 52, 34, 14 and 4 kDa cath-D fragments were expressed as GST fusion proteins; made in house; host or cells: Escherichia coli BL21 (GST fusion)
T1 sequence (P07339 21-412): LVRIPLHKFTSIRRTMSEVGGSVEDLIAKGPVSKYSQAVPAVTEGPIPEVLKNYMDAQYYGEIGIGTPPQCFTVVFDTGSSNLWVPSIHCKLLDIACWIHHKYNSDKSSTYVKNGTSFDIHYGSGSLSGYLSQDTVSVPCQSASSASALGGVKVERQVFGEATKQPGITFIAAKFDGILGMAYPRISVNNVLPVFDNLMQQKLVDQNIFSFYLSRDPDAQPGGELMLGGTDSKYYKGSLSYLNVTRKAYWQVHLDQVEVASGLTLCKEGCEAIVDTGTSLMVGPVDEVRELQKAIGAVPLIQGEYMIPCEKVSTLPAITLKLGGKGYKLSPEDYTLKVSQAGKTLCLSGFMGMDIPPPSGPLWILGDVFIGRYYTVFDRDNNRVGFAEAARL
Procedure: • (A) Schematic representation of GST-LRP1β fragments. Shorter GST-LRP1β fragments (F4, F6-F8) were derived from GST-LRP1β (307-479) (F0). The F4 (349-394) GST-LRP1β fragment was then sub-divided into shorter fragments (F5, F9-13). • (B) Binding of pro-cath-D to GST-LRP1β fragments. Radio-labelled pro-cath-D was incubated with beads containing GST-LRP1β fragments or GST. GST proteins bound to beads were stained by Coomassie (panels a, c) and bound pro-cath-D was detected by autoradiography (panels b, d). • (C) Effect of the (349-397) LRP1 peptide for the binding of the extracellular domain of LRP1β (1-476) to pro-cath-D. Schematic representation and numbering of the EGF-like repeats 16 to 22 present in the extracellular domain of LRP1β is shown in panel a. Radio-labelled extracellular domain of LRP1β (1-476) was incubated with beads containing GST-cath-D/52K in the absence or presence of increasing concentration of the (349-397) LRP1 peptide (panel b). GST proteins stained by Coomassie are shown in left panel and bound LRP1β (1-476) in right panel .
GST pull-down assays. [^35S]methionine-labelled pro-cath-D or LRP1β(1-476) were obtained by transcription and translation of pcDNA3.1(-)cath-D or pcONA3.1(+)LRP1β extracellular domain(1-476) expression plasmids, respectively, using the TNT^T7-coupled reticulocyte lysate system (Promega). […]

SEAP-LRP1β = assay: LRP1 ectodomain secretion assay (SEAP activity in the medium); type: cell-based; details: cath-D expressing COS cells, pepstatin 100 µM; Fig. 5A panel b
Description: as §1, with “Cells were lysed and the full-length Myc-LRP1β and its carboxy-terminal fragment (LRP1β-CTF) were isolated by immunoprecipitation and visualized by immunoblotting with the monoclonal antibody 11H4. *, p<0.025 versus Luc siRNA HMF cells; **, p<0.0025 versus Luc siRNA HMF cells (Student's t-test).” left out
LRP1 ectodomain secretion assay. […] SEAP activity was normalized to […] activity measured by hydrolysis of o-nitrophenyl-β-D-galactopyranoside in cells lysed in the reporter lysis buffer (Promega).

HMF fibroblasts = assay: Endocytosis of labelled pro-cath-D in HMF fibroblasts; type: cell-based; details: Homo sapiens, Fibroblast, over 3 h, 10 mM M6P, read-out: inhibition of pro-cath-D internalization
Procedure: (§2) • (A) Pro-cath-D is internalized in part by LRP1. Conditioned media containing labelled pro-cath-D was produced by incubating cath-D expressing 3Y1-Ad12 cells with [S^35]methionine and [S^35]cysteine for 24 h. HMF fibroblasts were transiently transfected with either Luc siRNA or LRP1 siRNA1 and endocytosis of labelled pro-cath-D was performed 48 h post-transfection. For endocytosis, siRNAs-transfected HMF fibroblasts were incubated for 3 h (panel a) or for 18h (panel c) with conditioned medium containing labelled pro-cath-D in the absence or presence of 10 mM M6P. Cell lysates containing endocytosed labelled cath-D were analyzed by SDS-PAGE after immunoprecipitation with M1G8 anti-cath-D antibody (panels a and c). LRP1β expression was monitored in HMF fibroblasts by immunoblotting 48 h post-transfection with either Luc or LRP1 siRNAs (panels b and d). ßactin was used as a loading control. […] LRP1β shedded in the media of HMF fibroblasts after 24 h in the presence of DAPT (1 µM) was detected by immmunoblotting with the monoclonal antibody #3501 directed against the extracellular LRP1 β chain (panel b). […]

LRP1β-CTF [2] = assay: Production of LRP1β-CTF and shedding of LRP1β in HMF fibroblasts; type: cell-based, human; details: DAPT 1 µM, 24 h, Fig. 6B panel a
Procedure: as §2
(§3) Immunoblotting. […] Equal amounts of protein (100 µg) from cell extracts quantitated by the Bradford assay, or equal volumes (80 µl) of conditioned media, were separated by SDS-PAGE on a 7.5 % gel for anti-LRP1β immunoblotting or on a 12 % gel for anti-cath-D immuno-blotting. […]

LRP1β-CTF [3] = assay: Production of LRP1β carboxyl-terminal fragment in COS cells (immunoprecipitation and immunoblotting); type: cell-based; details: COS cells transfected with Myc-LRP1β, DAPT 1 µM for 24 h; Fig. 5C
Description: as §1, with “Cells were lysed and the full-length Myc-LRP1β and its carboxy-terminal fragment (LRP1β-CTF) were isolated by immunoprecipitation and visualized by immunoblotting with the monoclonal antibody 11H4. *, p<0.025 versus Luc siRNA HMF cells; **, p<0.0025 versus Luc siRNA HMF cells (Student's t-test).” left out
as §3

cleavage sites [1]: 3
competition for the binding of LRP1β (1-476) to GST-pro-cath-D (pro-cath-D): competed efficiently
Compound: 49-mer: polypeptide sequence of 49 amino acids corresponding to the 349-397 fragment of the extra-cellular LRP1 β chain, SEQ ID NO: 5 (CRCLPGFLGDRCQYRQCSGYCENFGTCQMAADGSRQCRCTAYFEGSRCE)

Compound: CC(C)CC(=O)N[C@H](C(=O)N[C@H](C(=O)N[C@@H](CC(C)C)[C@@H](O)CC(=O)N[C@@H](C)C(=O)N[C@@H](CC(C)C)[C@@H](O)CC(=O)O)C(C)C)C(C)C [pepstatin A] (Isovaleryl-VV[Sta]A[Sta]-OH)
SEAP-LRP1β ectodomain shedding (SEAP-LRP1β): prevented

Compound: O=C[C@@H](O)[C@@H](O)[C@H](O)[C@H](O)COP(=O)(O)O [M6P, mannose-6-phosphate]
inhibition at 10000 µM (HMF fibroblasts): 82%

Compound: C[C@H](NC(=O)Cc1cc(F)cc(F)c1)C(=O)N[C@H](C(=O)OC(C)(C)C)c1ccccc1 [DAPT]
level of membrane bound LRP1β-CTF (LRP1β-CTF [2]): further increase
presence of LRP1β-CTF (LRP1β-CTF [3]): strong increase
